pEC50, pIC50: −log10 of the molar value. Read-outs that look alike come from different tables or passages of the source.
Assays:
HIV fusion = experiment: Anti-HIV fusion activity (preliminary, data not shown); format: cell-based; conditions: preliminary results
Excerpt: (§1) NL4-3 is a T-cell adapted HIV-1 strain, a wild type virus; PI—R is HIV-1M46I/L63P/V82P/I84V, an HIV-1 strain resistant to multiple protease inhibitors; and FHR-2 is an HIV-1 strain resistant to DSB (2).

[1] = tested on: FHR-2, an HIV-1 strain resistant to DSB (2); experiment: microbe, parasite or virus in culture; format: cell-based
Excerpt: as §1

[2] = tested on: PI-R, HIV-1M46I/L63P/V82P/I84V, resistant to multiple protease inhibitors; experiment: microbe, parasite or virus in culture; format: cell-based
Excerpt: as §1

[3] = tested on: NL4-3, a T-cell adapted HIV-1 strain, X4 wild type virus; experiment: microbe, parasite or virus in culture; format: cell-based
Excerpt: as §1

MT-4 cells = experiment: Cell growth inhibition (cytotoxicity) of uninfected cells; format: cell-based; conditions: table title: MT-4 cells; uninfected H9 cell growth; read-out: IC50 (concentration that inhibits uninfected cell growth by 50%)
[4] = as above; format: cell-based; conditions: human, uninfected MT-4 cells; table title: MT-4 cells; uninfected H9 cell growth; read-out: IC50 (concentration that inhibits uninfected cell growth by 50%)
HIV in H9 lymphocyte = conditions: cited from earlier work
[5] = MT-4 cells, DSB-resistant HIV-1 strain, — = no suppression at 5 μM, read-out: EC50, FHR-2 (concentration that inhibits viral replication by 50%)
[6] = MT-4 cells, multi-protease-inhibitor resistant HIV-1 strain, read-out: EC50, PI-R (concentration that inhibits viral replication by 50%)
[7] = MT-4 cells, NL4-3 wild type HIV-1 strain, read-out: EC50, NL4-3 (concentration that inhibits viral replication by 50%)

Compound | anti-HIV fusion activity (HIV fusion) | pEC50 [1, 5] | pEC50 [2, 6] | pEC50 [3, 7] | pIC50 (MT-4 cells) | pEC50 ([1]; Human immunodeficiency virus 1, MT4, read-out: EC50, FHR-2 (concentration that inhibits viral replication by 50%)) | pEC50 ([2]; Human immunodeficiency virus 1, MT4, read-out: EC50, PI-R (concentration that inhibits viral replication by 50%)) | pEC50 ([3]; Human immunodeficiency virus 1, NL43, MT4, read-out: EC50, NL4-3 (concentration that inhibits viral replication by 50%)) | pIC50 [4] | EC50, anti-HIV activity (HIV in H9 lymphocyte) [µg/mL]
CC(C)CC(CO)NC(=O)[C@]12CCC(C)(C)C=C1[C@H]1CC[C@@H]3[C@@]4(C)CC[C@H](OC(=O)CC(C)(C)C(=O)O)C(C)(C)[C@@H]4CC[C@@]3(C)[C@]1(C)CC2 (stereo partly drawn) [Compound 7, N-[3β-(3′,3′-Dimethylsuccinoxy)olean-18-en-28-oyl]-(1-hydroxy-methyl-3-methyl-butyl)-amide] | exhibit anti-HIV fusion activity | 5.56 | 7.06 | 7.35 | < 4.84 | – | – | – | – | –
CC(C)C[C@H](NC(=O)[C@]12CCC(C)(C)C=C1[C@H]1CC[C@@H]3[C@@]4(C)CC[C@H](OC(=O)CC(C)(C)C(=O)O)C(C)(C)[C@@H]4CC[C@@]3(C)[C@]1(C)CC2)C(=O)O [Compound 8, N-[3β-(3′,3′-Dimethylsuccinoxy)olean-18-en-28-oyl]-L-leucine] | exhibit anti-HIV fusion activity | 6.89 | 7.68 | 8.24 | < 4.84 | – | – | – | – | –
Cc1cn([C@H]2C[C@H](N=[N+]=[N-])[C@@H](CO)O2)c(=O)[nH]c1=O [AZT, reference compound] | – | 6.72 | – | 7.89 | < 4.43 | – | – | – | – | –
C=C(C)[C@@H]1CC[C@]2(C(=O)O)CC[C@]3(C)[C@H](CC[C@@H]4[C@@]5(C)CC[C@H](OC(=O)CC(C)(C)C(=O)O)C(C)(C)[C@@H]5CC[C@]43C)[C@@H]12 [DSB (2), 3-O-(3′,3′-dimethylsuccinyl)-betulinic acid, reference compound] | – | – | – | – | – | < 5.30 | 6.37 | 7.02 | < 5.30 | –
CC1(C)C=C2[C@H]3CC[C@@H]4[C@@]5(C)CCC(=O)C(C)(C)[C@@H]5CC[C@@]4(C)[C@]3(C)CC[C@@]2(C(=O)O)CC1 [moronic acid (3), moronic acid] | – | – | – | – | – | – | – | – | – | < 0.1

Reference: patent publication US7282521B2, “Anti-retroviral moronic acid derivatives” (priority 2004, dated 2007)
